From PMC10799935, “Discovery of a peripheral 5HT2A antagonist as a clinical candidate for metabolic dysfunction-associated steatohepatitis” (Nature Communications, 2024)
“And” between values parts separate entries of the source, which are not always exact repeats. Equal entries are not always repeated. Where two headings read alike, the source gives them in different places.

What was measured:
[1] = test system: Col1a1; test: CDAHFD mice: liver Col1a1 RNA expression (qRT-PCR); format: in vivo, mouse; settings: for Relative liver Col1a1 expressions in mice, measured using quantitative RT-PCR: individual mice and Average; for Col1A1 mRNA, Mean Diff.: Tukey; for Col1A1 mRNA, Median / Col1A1 mRNA, Mean: n=5; for Col1A1 mRNA, Mean: Column A = 1
Excerpt: C57BL/6 J male mice were purchased from the Japan SLC. Inc (Hamamatsu, Japan). Mice (5 weeks old) were fed Teklad Certitied Irradiated Global 18% protein rodent diet purchased from Dooyeol Biotech Co. Ltd (Seoul, South Korea) during the acclimation period. The liver fibrosis/inflammation-induced groups were CDAHFD-fed (A06071302, Research diet). […]. […] All animal experiments complied with the relevant ethical regulations.
The frozen liver tissue was homogenized and put into QiAzol (Qiagen, Hilden) to isolate RNA, and 4 μg of RNA was synthesized into cDNA using the RevertAid First Strand cDNA synthesis kit (Thermo Fischer, Waltham). The expressions of mouse collagen I (Forward: 5’-TGTGTTCCCTACTCAGCCGTG-3’. Reverse: 5’-CATCGGTCATGCTCTCTCCAA-3’), mouse α-SMA (Forward:5’-TCCTGACGCTGAAGTATCCGAT-3’, Reverse: 5’-GGCCACACAAAGCTCGTTATAG-3’) and mouse 36B4 (Forward: 5’-ACCTCCTTCTTCCAGGCTTT-3’, Reverse: 5’-CTCCAGTCTTTATCAGCTGC-3’) as house-keeping gene were measured using ViiA 7 Real-time PCR system (Thermo Fischer scientific).

[2] = test system: HFD-fed C57BL/6J mice; test: DIO mice: tissue weight; format: in vivo, mouse; settings: for Tissue Weight Kidney / Tissue Weight Liver / Tissue Weight Pancreas / Tissue Weight eWAT / Tissue Weight iWAT: PO; for Predicted (LS) mean diff. (Vehicle vs. 11c), Tissue Weight: Dunnett's multiple comparisons test; for Significant? (Vehicle vs. 11c), Tissue Weight: Dunnett's test, alpha 0.05; for Predicted (LS) mean 2 (11c group), Tissue Weight: test details, in g (unit assumed)
Excerpt: For in vivo efficacy in DIO models and CDAHFD models, the experimental protocol for this study was approved by the Institutional Animal Care and Use Committee (IACUC) at the Korea Advanced Institute of Science and Technology (No. KA2023-027-v2) or Kyungpook National University (No. KNU-20200134). All relevant ethical guidelines were followed. C57BL/6 J male mice (11 weeks old) were purchased from the Charles River Japan and were housed in a specific pathogen-free barrier facility under a regular light-dark cycle (12-hour light/12-hour dark) at 24°C with 40–60% humidity. Food (standard chow diet, Envigo, 2018S) and water were provided ad libitum. […] Mice were euthanized by the method of cervical dislocation. The measurement of lean and fat mass in live mice was performed by a body composition analyzer (LF50 BCA-analyzer, Bruker). After 6 h of fasting, mice were sacrificed, and tissue samples were obtained.

[3] = 3weeks
[4] = Pharmacokinetic study in dogs; format: in vivo, Beagle dogs; settings: dog
Method: The experimental protocol for this study was approved by the IACUC of KPC Co., Ltd. (No. KPC IACUC-P203046; Beagle dogs) or QuBEST BIO (No.QBIACUC-A20131). All relevant ethical guidelines were followed. Beagle male dogs (11 ~ 20 months old) were purchased from ORIENT BIO Inc. and were housed in the barrier animal facility of KPC Co., Ltd. under a regular light-dark cycle (12-hour light/12-hour dark) at 21.1–23.4°C with 55.3–72.2% humidity. Food (standard irradiated pelleted commercial laboratory diet, Cargill Agri Purina, 300 g/dog.day) and water were provided ad libitum. All study dogs were returned to the laboratory colony after the study without any euthanasia. Sprague-Dawley male rats (7 weeks old) were purchased from SAMTAKOBIOKOREA, Inc. and were housed in the barrier animal facility of Nonclinical Research Center, QuBEST BIO under a regular light-dark cycle (12-hour light/12-hour dark) at 19.7–22.7°C with 54.5–65.6% humidity. Food (standard irradiated pelleted commercial laboratory diet, Purina Rodent Chow, 38057) and water were provided ad libitum. All study rats were euthanized by CO2 gas upon study completion.
Blood samples were collected at the scheduled times up to 24 h post-dose (IV: 0.083, 0.25, 0.5, 1, 2, 4, 8, 12 and 24 h post-dose, PO: 0.25, 0.5, 1, 2, 4, 8, 12 and 24 h post-dose). Determination of compound 11c in plasma was performed by UHPLC-MS/MS. Pharmacokinetic parameters were calculated by noncompartmental analysis using Phoenix® WinNonlin® (Ver. 8.3‘, Certara).

[5] = Column C (11c 5mpk) vs. Column B
[6] = Column D (11c 10mpk) vs. Column B
[7] = DIO mice, 5mpk, individual animals, 5 mg/kg
[8] = DIO mice, 10mpk, individual animals, 10 mg/kg
[9] = male, beagle, plasma, 5 mg/kg, IV (5 mpk)
[10] = male, beagle, plasma, 5 mg/kg, PO (5 mpk)

Compound: Cc1nc2n(c(=O)c1CCN1CCC(=C3c4ccc(Cl)cc4CCc4cccnc43)CC1)CCCC2O (centres unmarked) [Compound 11c]
- Relative liver Col1a1 expressions in mice, measured using quantitative RT-PCR ([1]; CDAHFD+11c 5 mpk): 27.265 and 19.811 and 25.539 and 19.317 and 28.556
- Relative liver Col1a1 expressions in mice, measured using quantitative RT-PCR ([1]; CDAHFD+11c 5 mpk, mean): 24.098
- Relative liver Col1a1 expressions in mice, measured using quantitative RT-PCR ([1]; CDAHFD+11c 10mpk): 18.660 and 20.539 and 29.586 and 37.388 and 28.021
- Relative liver Col1a1 expressions in mice, measured using quantitative RT-PCR ([1]; CDAHFD+11c 10mpk, mean): 26.839
- mRNA expression of Col1a1 in liver tissue ([1]; CDAHFD-fed 11c vs CDAHFD-fed vehicle group): significantly decreased
- Col1A1 mRNA, Mean Diff. ([1]; Column A (Vehicle, no CDAHFD) vs. Column C (11c 5mpk)): -23.1
- Col1A1 mRNA, Mean Diff. ([1]; Column A (Vehicle, no CDAHFD) vs. Column D (11c 10mpk)): -25.84
- Col1A1 mRNA, Mean Diff. ([1]; Column B (CDAHFD+vehicle) vs. Column C (11c 5mpk)): 14.99
- Col1A1 mRNA, Mean Diff. ([1]; Column B (CDAHFD+vehicle) vs. Column D (11c 10mpk)): 12.25
- Col1A1 mRNA, Difference between medians: Actual [1, 5]: -15.12
- Col1A1 mRNA, Difference between medians: Hodges-Lehmann [1, 5]: -15.12
- Col1A1 mRNA, Mean Diff. ([1]; Column C (11c 5mpk) vs. Column D (11c 10mpk)): -2.741
- Col1A1 mRNA, Median ([1]; Column C (11c 5mpk)): 25.54, n=5
- Col1A1 mRNA, Mean ([1]; Column C (CDAHFD+11c 5mpk)): 24.1
- Col1A1 mRNA, Difference between medians: Actual [1, 6]: -12.64
- Col1A1 mRNA, Difference between medians: Hodges-Lehmann [1, 6]: -12.18
- Col1A1 mRNA, Median ([1]; Column D (11c 10mpk)): 28.02, n=5
- Col1A1 mRNA, Mean ([1]; Column D (CDAHFD+11c 10mpk)): 26.84
- Tissue Weight Kidney ([2]; DIO mice, 5mpk, group mean): 0.17 g
- Tissue Weight Liver ([2]; DIO mice, 5mpk, group mean): 1.34 g
- Tissue Weight Pancreas ([2]; DIO mice, 5mpk, group mean): 0.39 g
- Tissue Weight eWAT ([2]; DIO mice, 5mpk, group mean): 1.01 g
- Tissue Weight iWAT ([2]; DIO mice, 5mpk, group mean): 1.37 g
- Tissue Weight Kidney [2, 7]: 0.166 g and 0.156 g and 0.168 g and 0.162 g and 0.198 g and 0.195 g and 0.164 g
- Tissue Weight Liver [2, 7]: 1.353 g and 1.128 g and 1.239 g and 1.293 g and 1.762 g and 1.451 g
- Tissue Weight Pancreas [2, 7]: 0.398 g and 0.353 g and 0.255 g and 0.338 g and 0.634 g and 0.394 g and 0.387 g
- Tissue Weight eWAT [2, 7]: 1.284 g and 1.045 g and 0.952 g and 0.74 g and 0.897 g and 0.939 g and 1.199 g
- Tissue Weight iWAT [2, 7]: 1.826 g and 1.295 g and 1.198 g and 1.045 g and 1.186 g and 1.418 g and 1.644 g
- Tissue Weight Kidney ([2]; DIO mice, 10mpk, group mean): 0.18 g
- Tissue Weight Liver ([2]; DIO mice, 10mpk, group mean): 1.25 g
- Tissue Weight Pancreas ([2]; DIO mice, 10mpk, group mean): 0.36 g
- Tissue Weight eWAT ([2]; DIO mice, 10mpk, group mean): 0.57 g
- Tissue Weight iWAT ([2]; DIO mice, 10mpk, group mean): 1.15 g
- Tissue Weight Kidney [2, 8]: 0.183 g and 0.162 g and 0.142 g and 0.267 g and 0.16 g
- Tissue Weight Liver [2, 8]: 1.17 g and 1.368 g and 1.031 g and 1.332 g and 1.38 g and 1.246 g
- Tissue Weight Pancreas [2, 8]: 0.302 g and 0.381 g and 0.318 g and 0.442 g and 0.387 g and 0.34 g
- Tissue Weight eWAT [2, 8]: 0.449 g and 0.747 g and 0.512 g and 0.764 g and 0.418 g
- Tissue Weight iWAT [2, 8]: 0.774 g and 1.585 g and 1.202 g and 1.593 g and 1.007 g and 0.712 g
- Tissue weight of inguinal white adipose tissue (iWAT) ([2]; DIO mice, vs vehicle): significantly decreased
- Tissue weight of liver ([2]; DIO mice, vs vehicle): significantly decreased
- Predicted (LS) mean diff. (Vehicle vs. 11c), Tissue Weight ([2]; Kidney, 5mpk): 0.01612
- Significant? (Vehicle vs. 11c), Tissue Weight ([2]; Kidney, 5mpk): No
- Predicted (LS) mean 2 (11c group), Tissue Weight ([2]; Kidney, 5mpk): 0.1727
- Predicted (LS) mean diff. (Vehicle vs. 11c), Tissue Weight ([2]; Kidney, 10mpk): 0.006
- Significant? (Vehicle vs. 11c), Tissue Weight ([2]; Kidney, 10mpk): No
- Predicted (LS) mean 2 (11c group), Tissue Weight ([2]; Kidney, 10mpk): 0.1828
- Predicted (LS) mean diff. (Vehicle vs. 11c), Tissue Weight ([2]; Liver, 5mpk): 0.2072
- Significant? (Vehicle vs. 11c), Tissue Weight ([2]; Liver, 5mpk): No
- Predicted (LS) mean 2 (11c group), Tissue Weight ([2]; Liver, 5mpk): 1.336
- Predicted (LS) mean diff. (Vehicle vs. 11c), Tissue Weight ([2]; Liver, 10mpk): 0.289
- Significant? (Vehicle vs. 11c), Tissue Weight ([2]; Liver, 10mpk): Yes
- Predicted (LS) mean 2 (11c group), Tissue Weight ([2]; Liver, 10mpk): 1.255
- Predicted (LS) mean diff. (Vehicle vs. 11c), Tissue Weight ([2]; Pancreas, 5mpk): 0.1064
- Significant? (Vehicle vs. 11c), Tissue Weight ([2]; Pancreas, 5mpk): No
- Predicted (LS) mean 2 (11c group), Tissue Weight ([2]; Pancreas, 5mpk): 0.3941
- Predicted (LS) mean diff. (Vehicle vs. 11c), Tissue Weight ([2]; Pancreas, 10mpk): 0.1388
- Significant? (Vehicle vs. 11c), Tissue Weight ([2]; Pancreas, 10mpk): No
- Predicted (LS) mean 2 (11c group), Tissue Weight ([2]; Pancreas, 10mpk): 0.3617
- Predicted (LS) mean diff. (Vehicle vs. 11c), Tissue Weight ([2]; eWAT, 5mpk): -0.00381
- Significant? (Vehicle vs. 11c), Tissue Weight ([2]; eWAT, 5mpk): No
- Predicted (LS) mean 2 (11c group), Tissue Weight ([2]; eWAT, 5mpk): 1.373
- Predicted (LS) mean diff. (Vehicle vs. 11c), Tissue Weight ([2]; eWAT, 10mpk): 0.2238
- Significant? (Vehicle vs. 11c), Tissue Weight ([2]; eWAT, 10mpk): No
- Predicted (LS) mean 2 (11c group), Tissue Weight ([2]; eWAT, 10mpk): 1.146
- Predicted (LS) mean diff. (Vehicle vs. 11c), Tissue Weight ([2]; iWAT, 5mpk): 0.08033
- Significant? (Vehicle vs. 11c), Tissue Weight ([2]; iWAT, 5mpk): No
- Predicted (LS) mean 2 (11c group), Tissue Weight ([2]; iWAT, 5mpk): 1.008
- Predicted (LS) mean diff. (Vehicle vs. 11c), Tissue Weight ([2]; iWAT, 10mpk): 0.5213
- Significant? (Vehicle vs. 11c), Tissue Weight ([2]; iWAT, 10mpk): Yes
- Predicted (LS) mean 2 (11c group), Tissue Weight ([2]; iWAT, 10mpk): 0.567
- Chemical stability ([3]; 25 °C): 99.8%
- Chemical stability ([3]; 60 °C): 99.6%
- V ([4]; IV (5 mpk)): 4.36 L/kg
- bioavailability ([4]; male, beagle, plasma, po, 5 mpk, dogs (summary statement), read-out: oral bioavailability): > 60%
- AUC [4, 9]: 16800 ng·h/mL
- clearance [4, 9]: 7 mL/min/kg
- half-life [4, 9]: 8.6 h
- AUC [4, 10]: 19100 ng·h/mL
- half-life [4, 10]: 10.2 h
- bioavailability ([4]; male, beagle, plasma, 5 mg/kg, PO (5 mpk), read-out: F (%)): 73%
